# Source: patent EP0069521A2, “Pyridinyl and imidazolyl derivatives of benzofurans and benzothiophenes” (THE UPJOHN COMPANY, priority 1981, dated 1983)
# Target: T1, TXA2 synthetase (Homo sapiens, UniProt P24557)
# T1 construct: generated by mixing prostaglandin H2 (PGHz) with human platelet microsomes (HPM); from tissue; host or cells: human platelet microsomes
# T1 sequence (P24557 1-533): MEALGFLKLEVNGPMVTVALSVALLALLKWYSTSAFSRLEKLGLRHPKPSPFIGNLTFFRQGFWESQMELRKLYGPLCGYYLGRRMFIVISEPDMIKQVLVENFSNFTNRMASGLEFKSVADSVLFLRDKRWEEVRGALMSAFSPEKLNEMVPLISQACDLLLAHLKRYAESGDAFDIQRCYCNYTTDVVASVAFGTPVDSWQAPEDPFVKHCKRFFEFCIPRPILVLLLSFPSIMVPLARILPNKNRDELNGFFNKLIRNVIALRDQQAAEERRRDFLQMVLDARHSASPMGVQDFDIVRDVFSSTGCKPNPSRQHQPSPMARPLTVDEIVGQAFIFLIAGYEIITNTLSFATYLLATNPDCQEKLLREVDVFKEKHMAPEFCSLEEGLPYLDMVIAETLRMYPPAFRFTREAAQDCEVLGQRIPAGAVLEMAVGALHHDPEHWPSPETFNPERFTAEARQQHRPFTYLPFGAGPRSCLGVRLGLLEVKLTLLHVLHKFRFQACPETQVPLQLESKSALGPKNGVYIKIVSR
# Assay: TXA2 inhibition test: TXA2 generated by mixing PGH2 with human platelet microsomes, response of superfused rabbit aortic strips
# Type: biochemical
# Details: inhibiting TXA2 formation; test compound added to human platelet microsomes 5 minutes before mixing with PGH2; rabbit aorta response
# Experimental: The compounds of the present invention were tested for TXA2 inhibition as follows: • Rabbit aortic strips were superfused in series with Krebs solution. Thromboxane Az (TXA2) was generated by mixing prostaglandin H2 (PGHz) with human platelet microsomes (HPM).
# Potential inhibitors were tested by comparing the response of the rabbit aorta to the amount of TXA2 produced by mixing PGH2 and HPM without the test compound in the reaction medium and then the amount of TXA2 produced when the test compound was added to the HPM 5 minutes before the HPM was mixed with PGH2. […] For a discussion of TXA2 synthetase inhibition testing see, e.g., R. Gorman, supra.
smiles,measurement,value
"O=C([O-])c1cc2cc(Cc3cccnc3)ccc2o1.[Na+] [Example A-2, Sodium 5-(3'-pyridinylmethyl)benzofuran-2-carboxylate]",approximate ED50,~0.01 µg/mL
